Results taken from US8501787B2, “Compounds for the inhibition of angiogenesis and use thereof” (Shire Orphan Therapies GmbH, priority 2004, dated 2013).

target: T1, integrin alpha5beta1 (Homo sapiens, UniProt P05556+P08648); test: Alpha5beta1-Fibronectin binding assay (competitive ELISA); settings: inhibition of integrin binding to fibronectin; read-out: IC50 alpha5beta1 in nM
T1 construct: The integrin alpha5beta1 extracellular domain Fc-fusion was expressed and purified; made in house
Procedure: The optimal concentrations of integrin and ligand were selected from ELISA binding studies with variable concentrations of both to obtain optimal signal noise ratio for further studies. IC50 studies were performed with fixed concentration of ligand and integrin and a serial dilution of inhibitor. The plates were measured with SpectraMax Plus reader (Molecular Devices). The resulting inhibition curves were analyzed using SoftMaxPro 4.0 software, the turning point describes the IC50 value.
Fibronectin and Vitronectin were purchased from Sigma, fibrinogen from Calbiochem. (EMD Biosciences, Darmstadt, Germany) The integrin alpha5beta1 extracellular domain Fc-fusion was expressed and purified as described in (Coe, 2001, JBC, 276, 35854). Integrins alphavbeta3 and alphavbeta5 were purchased from Chemicon (Chemicon Europe, Germany) and alphaIIbbeta3 form Kordia (Kordia Life Science, Leiden, Netherlands)
Fibronectin was diluted with coating buffer (15 mM Na2CO3, 35 mM NaHCO3, pH9.6) and coated with 100 μL/well to Nunc-Immuno maxisorp plates (Nalge Nunc Europe Ltd) over night at 4° C. After discarding the coating solution plates were washed 3 times with buffer 1 ([…], pH7.6, 150 mM NaCl, 1 mM […], 1 mg/mL BSA) and blocked with 100 μL blocking buffer (3% BSA in PBS 0.1% Tween20) for 1 hour at room temperature. After washing the blocked plates (3 times) with buffer 1, integrin (50 μL) and either inhibitor (serial dilution in buffer 1) or buffer 1 (50 μL) were added to the wells and incubated for one hour at RT. Plates were then washed (3 times) with buffer 1 and incubated with 100 μL of anti-human-Fc-HRP antibody conjugate (Sigma-Aldrich, Taufkirchen, Germany) in buffer 1 for 1 hour at RT. After additional washing steps (3 times) with buffer 1 50 μL of HRP substrate solution TMB (Seramun, Germany) were added to the wells. Colour development was stopped after 3-5 minutes with 50 μL 1M H2SO4. The developed colour was measured at 450 nm and analyzed as described above.

Row | IC50 | Compound
1 | 11.9 nM | CCC(=O)N1C[C@H](OCC(=O)NC[C@H](NS(=O)(=O)c2c(C)cc(C)cc2C)C(=O)O)C[C@H]1CNc1ccccn1 [Compound 38, 3-{2-[1-Propionyl-5-(pyridin-2-ylaminomethyl)-pyrrolidin-3-yloxy]-acetylamino}-2-(2,4,6-trimethyl-benzenesulfonylamino)-propionic acid]
2 | 11.3 nM | Cc1cc(C)c(S(=O)(=O)N[C@@H](CNC(=O)CO[C@@H]2C[C@@H](CNc3ccccn3)N(S(=O)(=O)Cc3ccccc3)C2)C(=O)O)c(C)c1 [Compound 15, 3-{2-[1-Phenylmethanesulfonyl-5-(pyridin-2-ylaminomethyl)-pyrrolidin-3-yloxy]-acetylamino}-2-(2,4,6-trimethyl-benzenesulfonylamino)-propionic acid]

same assay, conditions: method of section 1.1; read-out: Group (binding activities to integrin alpha5beta1)

Row | IC50 | Compound
3 | < 10 nM | Cc1cc(C)c(S(=O)(=O)N[C@@H](CNC(=O)CO[C@@H]2C[C@@H](CNc3ccccn3)N(C(=O)CC(C)(C)C)C2)C(=O)O)c(C)c1 [Compound 31, 3-{2-[1-(3,3-Dimethyl-butyryl)-5-(pyridin-2-ylaminomethyl)-pyrrolidin-3-yloxy]-acetylamino}-2-(2,4,6-trimethyl-benzenesulfonylamino)-propionic acid]
4 | 10 to 500 nM | CCC(=O)N1C[C@H](OCC(=O)NC[C@H](NS(=O)(=O)c2c(C)cc(C)cc2C)C(=O)O)C[C@H]1CNc1ccccn1 [Compound 38, 3-{2-[1-Propionyl-5-(pyridin-2-ylaminomethyl)-pyrrolidin-3-yloxy]-acetylamino}-2-(2,4,6-trimethyl-benzenesulfonylamino)-propionic acid]
5 | < 10 nM | CC(C)(C)C(=O)N[C@@H](CNC(=O)CO[C@@H]1C[C@@H](CNc2ccccn2)N(C(=O)OCc2ccccc2)C1)C(=O)O [Compound 117, 4-{[2-Carboxy-2-(2,2-dimethyl-propionylamino)-ethylcarbamoyl]-methoxy}-2-(pyridin-2-ylaminomethyl)-pyrrolidine-1-carboxylic acid benzyl ester]
6 | > 500 nM | O=C(CO[C@@H]1C[C@@H](CNc2ccccn2)N(C(=O)OCc2ccccc2)C1)NC[C@H](NC(=O)c1cc(C(F)(F)F)cc(C(F)(F)F)c1)C(=O)O [Compound 86, 4-{[2-(3,5-Bis-trifluoromethyl-benzoylamino)-2-carboxy-ethylcarbamoyl]-methoxy}-2-(pyridin-2-ylaminomethyl)-pyrrolidine-1-carboxylic acid benzyl ester]

The remaining lines, values behind:

Row | Compound | IC50
7 | Cc1cc(C)c(S(=O)(=O)N[C@@H](CNC(=O)CO[C@@H]2C[C@@H](CNc3ccccn3)N(C(=O)OCC(C)C)C2)C(=O)O)c(C)c1 [Compound 41, 4-{[2-Carboxy-2-(2,4,6-trimethyl-benzenesulfonylamino)-ethylcarbamoyl]-methoxy}-2-(pyridin-2-ylaminomethyl)-pyrrolidine-1-carboxylic acid isobutyl ester] | < 10 nM
8 | COc1cccc(CC(=O)N2C[C@H](OCC(=O)NC[C@H](NS(=O)(=O)c3c(C)cc(C)cc3C)C(=O)O)C[C@H]2CNc2ccccn2)c1 [Compound 36, 3-{2-[1-[2-(3-Methoxy-phenyl)-acetyl]-5-(pyridin-2-ylaminomethyl)-pyrrolidin-3-yloxy]-acetylamino}-2-(2,4,6-trimethyl-benzenesulfonylamino)-propionic acid] | 10 to 500 nM
9 | O=C(CO[C@@H]1C[C@@H](CNc2ccccn2)N(C(=O)OCc2ccccc2)C1)NC[C@H](NC(=O)CCc1ccccc1)C(=O)O [Compound 74, 4-{[2-Carboxy-2-(3-phenyl-propionylamino)-ethylcarbamoyl]-methoxy}-2-(pyridin-2-ylaminomethyl)-pyrrolidine-1-carboxylic acid benzyl ester] | 10 to 500 nM
10 | CCC(C)(C)C(=O)N[C@@H](CNC(=O)CO[C@@H]1C[C@@H](CNc2ccccn2)N(C(=O)OCc2ccccc2)C1)C(=O)O [Compound 118, 4-{[2-Carboxy-2-(2,2-dimethyl-butyrylamino)-ethylcarbamoyl]-methoxy}-2-(pyridin-2-ylaminomethyl)-pyrrolidine-1-carboxylic acid benzyl ester] | < 10 nM
11 | Cc1cc(C)c(S(=O)(=O)N[C@@H](CNC(=O)CO[C@@H]2C[C@@H](CNc3ccccn3)N(C(=O)CC3CCCC3)C2)C(=O)O)c(C)c1 [Compound 35, 3-{2-[1-(2-Cyclopentyl-acetyl)-5-(pyridin-2-ylaminomethyl)-pyrrolidin-3-yloxy]-acetylamino}-2-(2,4,6-trimethyl-benzenesulfonylamino)-propionic acid] | 10 to 500 nM
12 | Cc1cc(C)c(S(=O)(=O)N[C@@H](CNC(=O)CO[C@@H]2C[C@@H](CNc3ccccn3)N(C(=O)C(F)(F)C(F)(F)C(F)(F)C(F)(F)C(F)(F)C(F)(F)C(F)(F)F)C2)C(=O)O)c(C)c1 [Compound 63, 3-{2-[1-(2,2,3,3,4,4,5,5,6,6,7,7,8,8,8-Pentadecafluoro-octanoyl)-5-(pyridin-2-ylaminomethyl)-pyrrolidin-3-yloxy]-acetylamino}-2-(2,4,6-trimethyl-benzenesulfonylamino)-propionic acid] | > 500 nM
13 | O=C(O)C[C@H](Cc1ccccc1)NC(=O)CO[C@@H]1C[C@@H](CNc2ccccn2)N(C(=O)OCc2ccccc2)C1 [Compound 150, 4-[(1-Carboxymethyl-2-phenyl-ethylcarbamoyl)-methoxy]-2-(pyridin-2-ylaminomethyl)-pyrrolidine-1-carboxylic acid benzyl ester] | > 500 nM
14 | Cc1cc(C)c(S(=O)(=O)N[C@@H](CNC(=O)CO[C@@H]2C[C@@H](CNc3ccccn3)N(S(=O)(=O)Cc3ccccc3)C2)C(=O)O)c(C)c1 [Compound 15, 3-{2-[1-Phenylmethanesulfonyl-5-(pyridin-2-ylaminomethyl)-pyrrolidin-3-yloxy]-acetylamino}-2-(2,4,6-trimethyl-benzenesulfonylamino)-propionic acid] | 10 to 500 nM
15 | O=C(CO[C@@H]1C[C@@H](CNc2ccccn2)N(C(=O)OCc2ccccc2)C1)NC[C@H](NC(=O)c1ccccc1[N+](=O)[O-])C(=O)O [Compound 96, 4-{[2-Carboxy-2-(2-nitro-benzoylamino)-ethylcarbamoyl]-methoxy}-2-(pyridin-2-ylaminomethyl)-pyrrolidine-1-carboxylic acid benzyl ester] | < 10 nM
